Reference: the supplement of paper PMC10307832

Compound: CC1=NN=C(O1)C2=NN=C(C=C2)N3CCC(CC3)OC4=C(C=CC(=C4)F)Cl + Cc1nc(NC(=O)N2CCC[C@H]2C(N)=O)sc1-c1ccnc(C(C)(C)C(F)(F)F)c1 [Alpelisib] (partner 2 µM)
Test: relative viability (nuclei count vs DMSO), 5 days (fraction); higher = more cells survive
Details: first compound 0.253 µM
In short: (§1)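 Relative viability was taken as the ratio of nuclei in treated wells to nuclei in vehicle wells. Lung cancer cell lines in 1536-well plates received compounds by pin tool one day after seeding, either one drug alone or a fixed anchor-drug dose plus five library-drug doses (not always all listed) in √10 steps. Nuclei were counted on 4× images after 5 days of treatment, and values are medians of duplicate plates.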

Cell Line | relative viability
SK-LU-1 | 0.754
NCI-H1703 | 0.313
EBC-1 | 0.752
NCI-H1792 | 0.397
NCI-H2087 | 0.762
SW 1573 | 0.753
LCLC-103H | 0.792
NCI-H727 | 0.569
NCI-H2405 | 0.745
EMC-BAC-2 | 0.69
NCI-H23 | 0.635
Calu-6 | 0.808
HCC-366 | 0.205
NCI-H1755 | 0.713
NCI-H838 | 0.833
LK-2 | 1.03
NCI-H2347 | 0.788

Cell Line | relative viability
SK-MES-1 | 0.786
H3255 | 0.562
COR-L23 | 0.591
COR-L 105 | 0.925
IA-LM | 0.156
LU99A | 0.547
NCI-H2170 | 0.646
NCI-H460 | 0.356
HCC-44 | 0.491
A549 | 0.573
NCI-H661 | 0.73
NCI-H2023 | 0.499
NCI-H1299 | 0.939
NCI-H2009 | 0.712
NCI-H1563 | 1
NCI-H520 | 0.864
NCI-H2228 | 0.684

Same assay, conditions: first compound 0.8 µM

Cell Line | relative viability
SK-LU-1 | 0.812
NCI-H1703 | 0.388
EBC-1 | 0.908
NCI-H1792 | 0.432
NCI-H2087 | 0.674
NCI-H596 | 0.535
SW 1573 | 0.722
LCLC-103H | 0.946
NCI-H727 | 0.58
NCI-H2405 | 0.778
EMC-BAC-2 | 0.649
Calu-6 | 0.864
HCC-366 | 0.212
NCI-H1755 | 0.697
NCI-H838 | 0.867
LK-2 | 1.01
NCI-H2347 | 0.758

Cell Line | relative viability
SK-MES-1 | 0.953
H3255 | 0.614
COR-L23 | 0.657
COR-L 105 | 1.03
IA-LM | 0.157
LU99A | 0.526
NCI-H2170 | 0.593
NCI-H460 | 0.359
HCC-44 | 0.573
A549 | 0.666
NCI-H661 | 0.421
NCI-H2023 | 0.444
NCI-H1299 | 0.877
NCI-H2009 | 0.714
NCI-H1563 | 0.952
NCI-H520 | 0.846
NCI-H2228 | 0.545

Same assay, conditions: first compound 2.53 µM

Cell Line | relative viability
SK-LU-1 | 0.938
NCI-H1703 | 0.337
EBC-1 | 0.756
NCI-H1792 | 0.264
NCI-H2087 | 0.615
NCI-H596 | 0.444
NCI-H1355 | 0.78
SW 1573 | 0.701
LCLC-103H | 0.775
NCI-H727 | 0.593
NCI-H2405 | 0.691
EMC-BAC-2 | 0.695
NCI-H23 | 0.663
Calu-6 | 0.895
HCC-366 | 0.284
NCI-H1755 | 0.709
NCI-H838 | 0.916
LK-2 | 1.17

Cell Line | relative viability
NCI-H2347 | 0.801
SK-MES-1 | 0.859
H3255 | 0.633
COR-L23 | 0.574
COR-L 105 | 1.12
IA-LM | 0.137
LU99A | 0.559
NCI-H2170 | 0.626
NCI-H460 | 0.394
HCC-44 | 0.56
A549 | 0.581
NCI-H661 | 0.629
NCI-H2023 | 0.43
NCI-H1299 | 0.971
NCI-H2009 | 0.646
NCI-H1563 | 0.999
NCI-H520 | 0.953
NCI-H2228 | 0.923

Same assay, conditions: first compound 8 µM

Cell Line | relative viability
SK-LU-1 | 0.737
NCI-H1703 | 0.395
EBC-1 | 0.74
NCI-H1792 | 0.448
NCI-H2087 | 0.615
NCI-H596 | 0.391
NCI-H1355 | 0.734
SW 1573 | 0.791
LCLC-103H | 0.776
NCI-H727 | 0.471
NCI-H2405 | 0.828
EMC-BAC-2 | 0.581
NCI-H23 | 0.822
Calu-6 | 0.846
HCC-366 | 0.323
NCI-H1755 | 0.671
NCI-H838 | 0.947
LK-2 | 1.23

Cell Line | relative viability
NCI-H2347 | 0.682
SK-MES-1 | 0.871
H3255 | 0.571
COR-L23 | 0.552
COR-L 105 | 1.29
IA-LM | 0.157
LU99A | 0.495
NCI-H2170 | 0.574
NCI-H460 | 0.391
HCC-44 | 0.474
A549 | 0.463
NCI-H661 | 0.564
NCI-H2023 | 0.361
NCI-H1299 | 0.868
NCI-H2009 | 0.626
NCI-H1563 | 1.09
NCI-H520 | 0.88
NCI-H2228 | 0.479

Compound: CC(C)C[C@@H](C(=O)N[C@H](C(=O)OC1CCCC1)c1ccccc1)[C@H](O)C(=O)NO [Tosedostat] + NC(=O)Nc1cc(-c2cccc(F)c2)sc1C(=O)N[C@H]1CCCNC1 [AZD7762] (partner 0.2 µM)
Test: as above
Details: first compound 0.02 µM
In short: as §1

Cell Line | relative viability
NCI-H522 | 0.901
NCI-H1703 | 0.122
NCI-H1792 | 0.523
NCI-H2087 | 1.52
NCI-H596 | 1.04
NCI-H1355 | 0.698
LCLC-103H | 0.886
NCI-H727 | 0.667
NCI-H2405 | 0.817
EMC-BAC-2 | 1.09
NCI-H23 | 0.31
HCC-366 | 0.291
NCI-H1755 | 0.43
NCI-H838 | 0.999
LK-2 | 0.459
NCI-H2347 | 0.631
NCI-H2342 | 0.512
